Laboratory results published in patent US20150352022A1, “Cosmetic Compositions and Methods For Inhibiting Melanin Synthesis” (The Procter & Gamble Company, priority 2013, published 2015).

System: B16-F1 mouse melanoma cells
Assay: Melanin Synthesis Assay
Type: cell-based
Experimental: A B16-F1 mouse melanoma cell line may be employed as an assay to measure melanin synthesis. The B16-F1 cells may be obtained from American Tissue Culture Collection, Virginia, USA. The cell culture medium that may be used in the assay may comprise 500 mL of Dulbecco's Modified Eagle's Medium (DMEM), 50 mL Fetal Bovine Serum (FBS), and 5 mL of penicillin-streptomycin liquid. B16-F1 cells that are cultured in this medium and grown to greater than 90% confluency synthesize melanin. While not intending to be bound by any theory, it is hypothesized that melanin synthesis is stimulated by the culture medium and/or stress induced by growth to a high confluency. […] Equipment used in the assay include a CO2 incubator, such as a Forma Series Model 3110 by Therma Scientific, Massachusetts, USA; a hemocytometer, such as a Bright Line model by Hauser Scientific, Pennsylvania, USA; and a UV-Visible Spectrum Plate Reader, such as a SpectraMax250 from Molecular Devices, California, USA. […] Read the 96 well plate using the UV-Vis Plate Reader at 410 nm to optically measure the amount of melanin produced between wells that are treated with [test compound] and control wells that are not treated with a test compound. […] Percentage of melanin synthesis inhibition is calculated by the following equation: [formula] Where OD410 is the Optical Density at 410 nm as measured by the UV-Vis Spectrum Plate Reader. […]

## CC(C)=CCC[C@](C)(O)[C@@H]1CC=C(C)CC1 [Sample 1, bisabolol]
OD 410 nm, Bis 0.1%, HD 0.00056%, UP 0.00011%, Nia 0.00056% where present
  Average Melanin % Inhibition: 2.2%
Statistical comparison versus Sample 4
  reduction of the production of melanin as compared to Sample 4 (HD/UP/Nia): did not significantly reduce
